Experimental data reported in patent US20120034193A1, “TREATMENT OF NEUROTROPHIC FACTOR MEDIATED DISORDERS” (priority 2009, published 2012).
Marks after values point to notes of the source that are not given here.

Columns and labels:
C57b1/6 RJ mice = assay: Sciatic nerve crush model; type: in vivo, Mouse; conditions: for Degenerated fibres (% of control): nerve crush alone 109.10 ± 2.65; for Recovery of nerve function as measured by CMAP parameters (amplitude, latency, duration): sarsasapogenin 3, smilagenin 0.3 and 3 mg/kg/day, oral gavage in oil, 6 weeks
Source text: The sciatic nerve crush model is a well characterised reversible model for motor neurone disease and post-traumatic nerve injuries (McMahon and Priestley, Current Opinion in Neurobiology, 1995, 5, pp. 616-624). The nerve damage is produced by mechanical pressure using haemostatic forceps, applied twice, 5 mm proximal to the trifurcation of the right sciatic nerve of these mice. […] The loss of nerve function recovers progressively over a 4-5 week period after the mechanical insult.
4-Methylcatechol (10 μg/kg/day, i.p.) was used as a positive control (Kaechi et al., Journal of Phamacology and Experimental Therapeutics, 1995, 272, pp. 1300-1304).
C57b1/6 RJ mice were anaesthetised with ketamine chlorhydrate (60 mg/kg, i.p.). The sciatic nerve was surgically exposed at mid thigh level and crushed at 5 mm proximal to the trifurcation of the sciatic nerve. The nerve was crushed twice for 30 s with a haemostatic forceps with a 90-degree rotation between each crush. […] The loss of nerve function recovered progressively over a 4-5 week period after mechanical insult. Electromyographic recordings were assessed as described above.

[1] = test system: Rat spinal motor neurones; assay: Neuronal survival and neurite outgrowth in spinal motor neurones; type: cell-based; conditions: 3 days
Method: Rat spinal motor neurones were prepared according to a previously described method (Martinou et al, Neuron, 8, 737-744, 1992). Following 3 days of culturing with sarsasapogenin, smilagenin, vehicle (DMSO, 0.25%), Xaliproden, or BDNF, spinal cord motor neurones were washed twice in PBS, fixed in a cold solution of alcohol (95%) and acetic acid (5%) for 5 min and then rinsed 3 times in PBS. Neurones were stained using a monoclonal antibody anti β-tubulin and an anti mouse Immunoglobulin G. These antibodies stained neurone cell bodies (quantifying the neuroprotective effect) and neurites (quantifying the neurotrophic effect). The cell nuclei were stained by a fluorescent marker. After 1 h of incubation, cells were washed 3 times in PBS. […] A series of pictures were taken using a camera controlled by computer software. All the images were taken under the same conditions. Analyses of the number of cells labelled with anti β-tubulin antibodies and of the total number of cells (number of stained nuclei) were performed using LUCIA 6.0 software.

[2] = Tissue distribution after a single oral administration, dog; type: in vivo
[3] = test system: rat primary cortical neurones; assay: ChAT positive neurones and neurite outgrowth after β-amyloid exposure; type: cell-based; conditions: 10 μM pre-incubation 48 h, then β-amyloid 10 μg/ml 48 h
Method: (§1) Rat cortical neurones were cultured by modification of a method previously described (Eckenstein and Sofroniew, Journal of Neuroscience, 1983, 3, pp. 2286-2291). On day 8, the culture medium was changed to a medium containing vehicle (DMSO, 0.5%) or smilagenin or sarsasapogenin (10 μM). On day 10, rat primary cortical neurones were exposed to β-amyloid (10 μg/ml) for 48 h at 37° C. and the concentration of BDNF in the culture medium, the number of choline acetyltransferase (ChAT) positive cells, and the neurite outgrowth was measured (smilagenin only).

[4] = test system: Rat primary dopaminergic neurones; assay: Reversal of MPP+-induced damage in dopaminergic neurones; type: cell-based; conditions: 30 nM for 48 h after MPP+ 2 μM 24 h
Method: Rat primary dopaminergic neurones were prepared as described above. On day 5, MPP^+ (2 μM) was added to the cultures for 24 h in culture medium at 37° C. in 5% CO2/95% air atmosphere. Exposure of rat primary dopaminergic neurones to MPP^+ (2 μM, 24 h) causes a significant decrease in the number of dopaminergic neurones compared to the control. On day 6 the medium was removed and fresh medium containing vehicle (DMSO, 0.25%), sarsasapogenin, smilagenin or a combinations of BDNF and GDNF was added. After 48 h, the extent of dopaminergic damage was determined as detailed above.

[5] = test system: Old Sprague Dawley (SD) rats; assay: Y-maze learning and memory in aged rats; type: in vivo, Rat; conditions: 18 mg/kg/day oral; for Learning ability (correct response/total time): 2 months, aged 2.39, young 5.97; for Memory ability (correct response/total time): 3 months, aged 2.16, young 5.27; for Anxiety (Y-maze): up to 3 months
Method: Old Sprague Dawley (SD) rats (20 month old) were orally administered sarsasapogenin or smilagenin (18 mg/kg/day) for 3 months. Young SD rats (4 month old) were used as healthy positive control and old SD rats (20 month old) were used as neurodegenerative control. A Y-maze was used to assess learning and memory, and was considered also a model of anxiety in light of the nature of the test that caused distress to the animal. On the floor of each arm of the Y-maze was an array of copper rods (2 mm×140 mm) to which an adjustable voltage electric current was applied when needed. Each arm was 450 mm long with a 15 W lamp at the end. Following 2 months of treatment each rat was trained for 7 consecutive days, once on each day. During each training session, a rat was put into one arm of the Y-maze and after 2 min an electrical current applied to the copper rods in the anti-clockwise arm and the lamp of the clockwise arm was illuminated, indicating the non-electrified area. If the rat went into the illuminated arm a correct response was recorded, otherwise a wrong response was recorded. This stimulation-response test was repeated 20 times each day, with a pause of 5 s between each test. The number of correct responses and the total time period for the 20 tests were recorded. A quotient of the number of correct responses divided by the total response time was calculated and used as an index for learning ability, with the higher the quotient the greater the learning ability. One month after the learning test (3 months of treatment) the Y-maze test was carried out again and the quotient obtained was used as an index for memory ability. At the end of the treatment the rats were killed and the brains removed for quantification of BDNF using an ELISA (data of BDNF presented in Example 3 above).

BDNF = BDNF protein in culture medium of rat cortical neurones exposed to β-amyloid; type: cell-based; conditions: 10 μM pre-incubation 48 h, then β-amyloid 10 μg/ml 48 h
Method: as §1

Rat cortical neurones = assay: Reversal of glutamate-induced damage in cortical neurones; type: cell-based; conditions: 30 nM for 24 h after glutamate 100 μM 10 min
Method: The rat cortical neurones were prepared as detailed above. On day 13, cultures were exposed to glutamate (100 μM) for 10 min at 37° C. in 5% CO2/95% air atmosphere in defined medium. Following the incubation period, the cultures were washed and maintained in fresh medium, containing sarsasapogenin, smilagenin or vehicle. Cells were cultured for a further 24 h after glutamate exposure and were then assessed for neuronal damage as detailed above.

[6] = Dog F, 25 mg/kg single oral, 4 h
[7] = Dog F, 25 mg/kg single oral, 24 h
[8] = Dog F, 25 mg/kg single oral, 168 h
[9] = Dog M, 25 mg/kg single oral, 4 h
[10] = Dog M, 25 mg/kg single oral, 24 h
[11] = Dog M, 25 mg/kg single oral, 168 h
[12] = Dog M, 10 mg/kg single oral, 2 h
[13] = Dog M, 10 mg/kg single oral, 24 h
[14] = Dog M, 10 mg/kg single oral, 168 h

With `C[C@H]1CC[C@@]2(OC1)O[C@H]1C[C@H]3[C@@H]4CC[C@@H]5C[C@@H](O)CC[C@]5(C)[C@H]4CC[C@]3(C)[C@H]1[C@@H]2C` [Sarsasapogenin, sarsasapogenin] the “Degenerated fibres (% of control)” value (C57b1/6 RJ mice; 3 mg/kg/day oral) was 33.50 ± 12.60 % of control, the “Recovery of nerve function as measured by CMAP parameters (amplitude, latency, duration)” value (C57b1/6 RJ mice) was “significantly improved the recovery of nerve function” and the “Neurite outgrowth (% of control)” value ([1]; 30 nM) was 129.98 ± 5.47 % of control. The “Neuronal survival (% of control)” value ([1]; 30 nM) was 119.14 ± 3.33 % of control, the “Neurite outgrowth (% of control)” value ([1]; 100 nM) was 137.38 ± 7.93 % of control and the “Neuronal survival (% of control)” value ([1]; 100 nM) was 117.87 ± 3.63 % of control. For the same compound, the “Concentration of compound, Brain” value [2, 6] was 0.128 ng equivalents/g tissue, the “Concentration of compound, Plasma” value [2, 6] was 0.184 ng equivalents/g tissue and the “Concentration of compound, Spinal cord” value [2, 6] was 0.515 ng equivalents/g tissue. For the same compound, the “Concentration of compound, Brain” value [2, 7] was 8.64 ng equivalents/g tissue, the “Concentration of compound, Plasma” value [2, 7] was 1.79 ng equivalents/g tissue and the “Concentration of compound, Spinal cord” value [2, 7] was 5.79 ng equivalents/g tissue. The “Concentration of compound, Brain” value [2, 8] was 0.535 ng equivalents/g tissue, the “Concentration of compound, Plasma” value [2, 8] was 0.115 ng equivalents/g tissue and the “Concentration of compound, Spinal cord” value [2, 8] was 1.43 ng equivalents/g tissue. The “Concentration of compound, Brain” value [2, 9] was 1.37 ng equivalents/g tissue, the “Concentration of compound, Plasma” value [2, 9] was 0.641 ng equivalents/g tissue and the “Concentration of compound, Spinal cord” value [2, 9] was 1.13 ng equivalents/g tissue. For the same compound, the “Concentration of compound, Brain” value [2, 10] was 2.33 ng equivalents/g tissue, the “Concentration of compound, Plasma” value [2, 10] was 0.196 ng equivalents/g tissue and the “Concentration of compound, Spinal cord” value [2, 10] was 1.82 ng equivalents/g tissue. For the same compound, the “Concentration of compound, Brain” value [2, 11] was 0.605 ng equivalents/g tissue, the “Concentration of compound, Plasma” value [2, 11] was 0.309 ng equivalents/g tissue and the “Concentration of compound, Spinal cord” value [2, 11] was 1.49 ng equivalents/g tissue. The “Number of ChAT positive neurones per field (% of control)” value [3] was 71.6 ± 3.7 % of control, the “Neuronal survival (% of control)” value [4] was 104.30 ± 5.63 % of control and the “Learning ability (correct response/total time)” value [5] was 5.02 ± 0.50 correct response/total time. For the same compound, the “Memory ability (correct response/total time)” value [5] was 4.66 ± 0.34 correct response/total time, the “Anxiety (Y-maze)” value [5] was “reduce the anxiety” and the “BDNF concentration (pg/ml)” value (BDNF) was 9.31 ± 0.15^++++,**** pg/ml. The “Neuronal survival (% of control)” value (Rat cortical neurones) was 103.43 ± 5.10 % of control.

In the case of `C[C@@H]1CC[C@@]2(OC1)O[C@H]1C[C@H]3[C@@H]4CC[C@@H]5C[C@@H](O)CC[C@]5(C)[C@H]4CC[C@]3(C)[C@H]1[C@@H]2C` [Smilagenin, smilagenin], the “Degenerated fibres (% of control)” value (C57b1/6 RJ mice; 0.3 mg/kg/day oral) is reported as 16.70 ± 4.23 % of control, the “Degenerated fibres (% of control)” value (C57b1/6 RJ mice; 3 mg/kg/day oral) is reported as −8.10 ± 6.03 % of control and the “Recovery of nerve function as measured by CMAP parameters (amplitude, latency, duration)” value (C57b1/6 RJ mice) is reported as “significantly improved the recovery of nerve function”. For the same compound, the “Neurite outgrowth (% of control)” value ([1]; 30 nM) was 163.66 ± 9.28 % of control, the “Neuronal survival (% of control)” value ([1]; 30 nM) was 120.11 ± 2.92 % of control and the “Neurite outgrowth (% of control)” value ([1]; 100 nM) was 164.75 ± 5.57 % of control. The “Neuronal survival (% of control)” value ([1]; 100 nM) was 121.21 ± 2.75 % of control, the “Concentration of compound, Brain” value [2, 12] was 3670 ng equivalents/g tissue and the “Concentration of compound, Plasma” value [2, 12] was 3878 ng equivalents/g tissue. The “Concentration of compound, Spinal cord” value [2, 12] was 1805 ng equivalents/g tissue, the “Concentration of compound, Brain” value [2, 13] was 5813 ng equivalents/g tissue and the “Concentration of compound, Plasma” value [2, 13] was 1508 ng equivalents/g tissue. For the same compound, the “Concentration of compound, Spinal cord” value [2, 13] was 3647 ng equivalents/g tissue, the “Concentration of compound, Brain” value [2, 14] was 1727 ng equivalents/g tissue and the “Concentration of compound, Plasma” value [2, 14] was 1129 ng equivalents/g tissue. For the same compound, the “Concentration of compound, Spinal cord” value [2, 14] was 3165 ng equivalents/g tissue, the “Neurite outgrowth (% of control)” value [3] was 85.8 ± 4.0 % of control and the “Number of ChAT positive neurones per field (% of control)” value [3] was 70.1 ± 9.6 % of control. The “Neuronal survival (% of control)” value [4] was 113.44 ± 4.62 % of control, the “Learning ability (correct response/total time)” value [5] was 4.81 ± 0.32 correct response/total time and the “Memory ability (correct response/total time)” value [5] was 4.58 ± 0.26 correct response/total time. The “Anxiety (Y-maze)” value [5] was “reduce the anxiety”, the “BDNF concentration (pg/ml)” value (BDNF) was 4.20 ± 0.06****^,++++ pg/ml and the “Neuronal survival (% of control)” value (Rat cortical neurones) was 111.06 ± 3.40 % of control.
